Marks after values point to notes of the source that are not given here.
Tested on: zebrafish embryos and larvae
Assay: Zebrafish embryo developmental toxicity assay
Details: for BA heart / BA tail / BA yolk / Curved fin left / Curved fin right / Curved tail / Deviating Heartbeat / Deviating pigmentation / Deviating shape of head / Deviation eye / Disturbed BC in tail / Edema head / Edema pericard / Edema yolk / Elbow tail / Malformation yolk / Missing fin left / Missing fin right / No BC in tail / No hatching / Tissue deviation tail / Tot. malformed (excl. dead) / Tot. malformed (incl. dead): 120 hpf

In the case of `c1ccc2nc3ccccc3cc2c1` [AI, acridine], the lethality (300 µM AI, 24 hpf) is reported as 100%, the BA heart (AI 3 µM, replicate 1) is reported as 0/20 and the BA tail (AI 3 µM, replicate 1) is reported as 0/20. The BA yolk (AI 3 µM, replicate 1) was 0/20, the Curved fin left (AI 3 µM, replicate 1) was 0/20 and the Curved fin right (AI 3 µM, replicate 1) was 0/20. The Curved tail (AI 3 µM, replicate 1) was 0/20, the “Deviating Heartbeat” value (AI 3 µM, replicate 1) was 0/20 and the Deviating pigmentation (AI 3 µM, replicate 1) was 0/20. For the same compound, the “Deviating shape of head” value (AI 3 µM, replicate 1) was 0/20, the Deviation eye (AI 3 µM, replicate 1) was 0/20 and the “Disturbed BC in tail” value (AI 3 µM, replicate 1) was 0/20. The Edema head (AI 3 µM, replicate 1) was 0/20, the Edema pericard (AI 3 µM, replicate 1) was 0/20 and the Edema yolk (AI 3 µM, replicate 1) was 0/20. For the same compound, the Elbow tail (AI 3 µM, replicate 1) was 0/20, the Malformation yolk (AI 3 µM, replicate 1) was 0/20 and the Missing fin left (AI 3 µM, replicate 1) was 0/20. For the same compound, the Missing fin right (AI 3 µM, replicate 1) was 0/20, the “No BC in tail” value (AI 3 µM, replicate 1) was 0/20 and the No hatching (AI 3 µM, replicate 1) was 0/20. For the same compound, the Tissue deviation tail (AI 3 µM, replicate 1) was 0/20, the “Tot. malformed (excl. dead)” value (AI 3 µM, replicate 1) was 0/20 and the “Tot. malformed (incl. dead)” value (AI 3 µM, replicate 1) was 0/20. The BA heart (AI 3 µM, replicate 2) was 0/20, the BA tail (AI 3 µM, replicate 2) was 0/20 and the BA yolk (AI 3 µM, replicate 2) was 0/20. For the same compound, the Curved fin left (AI 3 µM, replicate 2) was 0/20, the Curved fin right (AI 3 µM, replicate 2) was 0/20 and the Curved tail (AI 3 µM, replicate 2) was 0/20. For the same compound, the “Deviating Heartbeat” value (AI 3 µM, replicate 2) was 0/20, the Deviating pigmentation (AI 3 µM, replicate 2) was 0/20 and the “Deviating shape of head” value (AI 3 µM, replicate 2) was 0/20. For the same compound, the Deviation eye (AI 3 µM, replicate 2) was 0/20, the “Disturbed BC in tail” value (AI 3 µM, replicate 2) was 0/20 and the Edema head (AI 3 µM, replicate 2) was 0/20. For the same compound, the Edema pericard (AI 3 µM, replicate 2) was 0/20, the Edema yolk (AI 3 µM, replicate 2) was 0/20 and the Elbow tail (AI 3 µM, replicate 2) was 0/20. For the same compound, the Malformation yolk (AI 3 µM, replicate 2) was 0/20, the Missing fin left (AI 3 µM, replicate 2) was 0/20 and the Missing fin right (AI 3 µM, replicate 2) was 0/20. For the same compound, the “No BC in tail” value (AI 3 µM, replicate 2) was 0/20, the No hatching (AI 3 µM, replicate 2) was 0/20 and the Tissue deviation tail (AI 3 µM, replicate 2) was 0/20. For the same compound, the “Tot. malformed (excl. dead)” value (AI 3 µM, replicate 2) was 0/20, the “Tot. malformed (incl. dead)” value (AI 3 µM, replicate 2) was 0/20 and the BA heart (AI 30 µM, replicate 1) was 0/16. The BA tail (AI 30 µM, replicate 1) was 0/16, the BA yolk (AI 30 µM, replicate 1) was 0/16 and the Curved fin left (AI 30 µM, replicate 1) was 0/16. The Curved fin right (AI 30 µM, replicate 1) was 0/16, the Curved tail (AI 30 µM, replicate 1) was 2/16 and the “Deviating Heartbeat” value (AI 30 µM, replicate 1) was 6/16 ** (1.600). For the same compound, the Deviating pigmentation (AI 30 µM, replicate 1) was 5/16 * (1.455), the “Deviating shape of head” value (AI 30 µM, replicate 1) was 1/16 and the Deviation eye (AI 30 µM, replicate 1) was 2/16. The “Disturbed BC in tail” value (AI 30 µM, replicate 1) was 0/16, the Edema head (AI 30 µM, replicate 1) was 1/16 and the Edema pericard (AI 30 µM, replicate 1) was 1/16. The Edema yolk (AI 30 µM, replicate 1) was 1/16, the Elbow tail (AI 30 µM, replicate 1) was 2/16 and the Malformation yolk (AI 30 µM, replicate 1) was 3/16. The Missing fin left (AI 30 µM, replicate 1) was 1/16, the Missing fin right (AI 30 µM, replicate 1) was 1/16 and the “No BC in tail” value (AI 30 µM, replicate 1) was 1/16. For the same compound, the No hatching (AI 30 µM, replicate 1) was 15/16 **** (16.000), the Tissue deviation tail (AI 30 µM, replicate 1) was 4/16 * (1.333) and the “Tot. malformed (excl. dead)” value (AI 30 µM, replicate 1) was 16/16 **** (∞). The “Tot. malformed (incl. dead)” value (AI 30 µM, replicate 1) was 20/20 **** (∞) and the BA heart (AI 30 µM, replicate 2) was 0/6.

From publication PMC11347070 (Current Research in Toxicology, 2024)
